Source: ChEMBL document CHEMBL1201862, “PubChem BioAssay data set” (2004)
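All cell lines were grown in 96-well plates and treated with compound for 48 hours. Abbreviation: GI50, concentration required for 50% inhibition of growth.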 Calls of active or inactive are those of the source. No stated cut-off is given here; in the data, active = GI50 up to about 1.1 µM and inactive = higher.

Key:
Assay in all cases: inhibition of tumour cell growth, NCI panel, 48 h
[1] = system: 786-0
[2] = system: A498
[3] = system: A549
[4] = system: ACHN
[5] = system: BT-549
[6] = system: CAKI-1
[7] = system: CCRF-CEM
[8] = system: COLO 205
[9] = system: DU-145
[10] = system: EKVX
[11] = system: HCC 2998
[12] = system: HCT-116
[13] = system: HCT-15
[14] = system: HL-60
[15] = system: HOP-62
[16] = system: HOP-92
[17] = system: HT-29
[18] = system: Hs-578T
[19] = system: IGROV-1
[20] = system: K562
[21] = system: KM12
[22] = system: LOX IMVI
[23] = system: M14
[24] = system: MCF7
[25] = system: MDA-MB-231
[26] = system: MDA-MB-435
[27] = system: MDA-N
[28] = system: MOLT-4
[29] = system: Malme-3M
[30] = system: NCI-H226
[31] = system: NCI-H23
[32] = system: NCI-H460
[33] = system: NCI-H522
[34] = system: NCI/ADR-RES
[35] = system: OVCAR-3
[36] = system: OVCAR-4
[37] = system: OVCAR-5
[38] = system: OVCAR-8
[39] = system: PC-3
[40] = system: RPMI-8226
[41] = system: RXF 393
[42] = system: SF-268
[43] = system: SF-295
[44] = system: SF-539
[45] = system: SK-MEL-28
[46] = system: SK-MEL-2
[47] = system: SK-MEL-5
[48] = system: SK-OV-3
[49] = system: SN12C
[50] = system: SNB-19
[51] = system: SNB-75
[52] = system: SR
[53] = system: SW-620
[54] = system: T47D
[55] = system: TK-10
[56] = system: U-251
[57] = system: UACC-257
[58] = system: UACC-62
[59] = system: UO-31

O=C(NCCNCCNCCNC(=O)c1cc(-c2ccccc2)nc2ccccc12)c1cc(-c2ccccc2)nc2ccccc12
GI50 [1]: 1660 nM (inactive)
GI50 [2]: 3160 nM (inactive)
GI50 [3]: 5830 nM (inactive)
GI50 [4]: 2130 nM (inactive)
GI50 [5]: 7520 nM (inactive)
GI50 [6]: 15300 nM (inactive)
GI50 [7]: 2280 nM (inactive)
GI50 [8]: 1990 nM (inactive)
GI50 [9]: 3240 nM (inactive)
GI50 [10]: 5960 nM (inactive)
GI50 [11]: 1710 nM (inactive)
GI50 [12]: 1880 nM (inactive)
GI50 [13]: 7080 nM
GI50 [14]: 1740 nM (inactive)
GI50 [15]: 2510 nM (inactive)
GI50 [16]: 1920 nM (inactive)
GI50 [17]: 1700 nM (inactive)
GI50 [18]: 2250 nM (inactive)
GI50 [19]: 2520 nM (inactive)
GI50 [20]: 1940 nM (inactive)
GI50 [21]: 2240 nM (inactive)
GI50 [22]: 1560 nM (inactive)
GI50 [23]: 1820 nM (inactive)
GI50 [24]: 2040 nM (inactive)
GI50 [25]: 2960 nM (inactive)
GI50 [26]: 1810 nM (inactive)
GI50 [27]: 1600 nM (inactive)
GI50 [28]: 1950 nM (inactive)
GI50 [29]: 1870 nM (inactive)
GI50 [30]: 2640 nM (inactive)
GI50 [31]: 3150 nM (inactive)
GI50 [32]: 1790 nM (inactive)
GI50 [33]: 1670 nM (inactive)
GI50 [34]: 13400 nM (inactive)
GI50 [35]: 2640 nM (inactive)
GI50 [36]: 3430 nM (inactive)
GI50 [37]: 1870 nM (inactive)
GI50 [38]: 2080 nM (inactive)
GI50 [39]: 3480 nM (inactive)
GI50 [40]: 2450 nM (inactive)
GI50 [41]: 2020 nM (inactive)
GI50 [42]: 3400 nM (inactive)
GI50 [43]: 1670 nM (inactive)
GI50 [44]: 2080 nM (inactive)
GI50 [45]: 1700 nM (inactive)
GI50 [46]: 1540 nM (inactive)
GI50 [47]: 1520 nM (inactive)
GI50 [48]: 3020 nM (inactive)
GI50 [49]: 3070 nM (inactive)
GI50 [50]: 3790 nM (inactive)
GI50 [51]: 1780 nM (inactive)
GI50 [52]: 2020 nM (inactive)
GI50 [53]: 1830 nM (inactive)
GI50 [54]: 2680 nM (inactive)
GI50 [55]: 3010 nM (inactive)
GI50 [56]: 1730 nM (inactive)
GI50 [57]: 1720 nM (inactive)
GI50 [58]: 2050 nM (inactive)
GI50 [59]: 6900 nM (inactive)

Cc1ccc(-c2ccc3c(c2)Sc2ccccc2O3)n1C
GI50 [1]: 553 nM (active)
GI50 [2]: 416 nM (active)
GI50 [3]: 675 nM (active)
GI50 [4]: 3570 nM (inactive)
GI50 [5]: 3290 nM (inactive)
GI50 [6]: 303 nM (active)
GI50 [7]: 213 nM (active)
GI50 [8]: 232 nM (active)
GI50 [9]: 1130 nM (inactive)
GI50 [10]: 618 nM (active)
GI50 [11]: 171 nM (active)
GI50 [12]: 167 nM (active)
GI50 [13]: 143 nM
GI50 [14]: 125 nM (active)
GI50 [15]: 614 nM (active)
GI50 [16]: 19800 nM (inactive)
GI50 [17]: 213 nM (active)
GI50 [18]: 604 nM (active)
GI50 [19]: 232 nM (active)
GI50 [20]: 137 nM (active)
GI50 [21]: 257 nM (active)
GI50 [22]: 524 nM (active)
GI50 [23]: 371 nM (active)
GI50 [24]: 324 nM (active)
GI50 [25]: 1190 nM (inactive)
GI50 [26]: 26.3 nM (active)
GI50 [27]: 28.5 nM (active)
GI50 [28]: 822 nM (active)
GI50 [29]: 98.4 nM (active)
GI50 [30]: 19900 nM (inactive)
GI50 [31]: 908 nM (active)
GI50 [32]: 327 nM (active)
GI50 [33]: 56.4 nM (active)
GI50 [34]: 206 nM (active)
GI50 [35]: 373 nM (active)
GI50 [36]: 1320 nM (inactive)
GI50 [37]: 809 nM (active)
GI50 [38]: 693 nM (active)
GI50 [39]: 348 nM (active)
GI50 [40]: 179 nM (active)
GI50 [41]: 283 nM (active)
GI50 [42]: 791 nM (active)
GI50 [43]: 165 nM (active)
GI50 [44]: 308 nM (active)
GI50 [46]: 130 nM (active)
GI50 [47]: 356 nM (active)
GI50 [48]: 536 nM (active)
GI50 [49]: 306 nM (active)
GI50 [50]: 607 nM (active)
GI50 [51]: 238 nM (active)
GI50 [52]: 67.5 nM (active)
GI50 [53]: 264 nM (active)
GI50 [54]: > 100000 nM (inactive)
GI50 [55]: 627 nM (active)
GI50 [56]: 329 nM (active)
GI50 [57]: 19500 nM (inactive)
GI50 [58]: 59.3 nM (active)
GI50 [59]: 670 nM (active)

CC1(C)OCC2OC(n3cnc4c(N)nc(Cl)nc43)C(OS(C)(=O)=O)C2O1 (stereo not given)
GI50 [1]: > 100000 nM (inactive)
GI50 [2]: > 100000 nM (inactive)
GI50 [3]: > 100000 nM (inactive)
GI50 [4]: > 100000 nM (inactive)
GI50 [5]: > 100000 nM (inactive)
GI50 [6]: > 100000 nM (inactive)
GI50 [7]: > 100000 nM (inactive)
GI50 [8]: > 100000 nM (inactive)
GI50 [9]: > 100000 nM (inactive)
GI50 [10]: > 100000 nM (inactive)
GI50 [11]: > 100000 nM (inactive)
GI50 [12]: > 100000 nM (inactive)
GI50 [13]: > 100000 nM
GI50 [14]: > 100000 nM (inactive)
GI50 [15]: > 100000 nM (inactive)
GI50 [16]: 45300 nM (inactive)
GI50 [17]: > 100000 nM (inactive)
GI50 [18]: > 100000 nM (inactive)
GI50 [19]: > 100000 nM (inactive)
GI50 [20]: > 100000 nM (inactive)
GI50 [21]: > 100000 nM (inactive)
GI50 [22]: > 100000 nM (inactive)
GI50 [23]: > 100000 nM (inactive)
GI50 [24]: > 100000 nM (inactive)
GI50 [25]: > 100000 nM (inactive)
GI50 [26]: > 100000 nM (inactive)
GI50 [27]: > 100000 nM (inactive)
GI50 [28]: 48200 nM (inactive)
GI50 [29]: > 100000 nM (inactive)
GI50 [30]: > 100000 nM (inactive)
GI50 [31]: > 100000 nM (inactive)
GI50 [32]: > 100000 nM (inactive)
GI50 [33]: > 100000 nM (inactive)
GI50 [34]: > 100000 nM (inactive)
GI50 [35]: > 100000 nM (inactive)
GI50 [36]: > 100000 nM (inactive)
GI50 [37]: > 100000 nM (inactive)
GI50 [38]: > 100000 nM (inactive)
GI50 [39]: > 100000 nM (inactive)
GI50 [40]: > 100000 nM (inactive)
GI50 [41]: > 100000 nM (inactive)
GI50 [42]: > 100000 nM (inactive)
GI50 [43]: > 100000 nM (inactive)
GI50 [44]: > 100000 nM (inactive)
GI50 [45]: > 100000 nM (inactive)
GI50 [46]: > 100000 nM (inactive)
GI50 [47]: > 100000 nM (inactive)
GI50 [48]: > 100000 nM (inactive)
GI50 [49]: > 100000 nM (inactive)
GI50 [50]: > 100000 nM (inactive)
GI50 [51]: > 100000 nM (inactive)
GI50 [52]: > 100000 nM (inactive)
GI50 [53]: > 100000 nM (inactive)
GI50 [54]: > 100000 nM (inactive)
GI50 [55]: > 100000 nM (inactive)
GI50 [56]: > 100000 nM (inactive)
GI50 [57]: > 100000 nM (inactive)
GI50 [58]: > 100000 nM (inactive)
GI50 [59]: > 100000 nM (inactive)

COC1(OC)C=CC(=O)C=C1
GI50 [1]: 1900 nM (inactive)
GI50 [2]: 32600 nM (inactive)
GI50 [3]: 5850 nM (inactive)
GI50 [4]: 2540 nM (inactive)
GI50 [5]: 3550 nM (inactive)
GI50 [6]: 3610 nM (inactive)
GI50 [7]: 446 nM (active)
GI50 [8]: 7690 nM (inactive)
GI50 [9]: 3480 nM (inactive)
GI50 [10]: 6780 nM (inactive)
GI50 [11]: 3680 nM (inactive)
GI50 [12]: 1300 nM (inactive)
GI50 [13]: 4170 nM
GI50 [14]: 3150 nM (inactive)
GI50 [15]: 10600 nM (inactive)
GI50 [16]: 4430 nM (inactive)
GI50 [17]: 3110 nM (inactive)
GI50 [18]: 9840 nM (inactive)
GI50 [19]: 1720 nM (inactive)
GI50 [20]: 2200 nM (inactive)
GI50 [21]: 7520 nM (inactive)
GI50 [22]: 667 nM (active)
GI50 [23]: 3300 nM (inactive)
GI50 [24]: 1300 nM (inactive)
GI50 [25]: 2900 nM (inactive)
GI50 [26]: 3310 nM (inactive)
GI50 [27]: 7410 nM (inactive)
GI50 [28]: 2330 nM (inactive)
GI50 [29]: < 10 nM (active)
GI50 [30]: 2610 nM (inactive)
GI50 [31]: 2660 nM (inactive)
GI50 [32]: 6610 nM (inactive)
GI50 [33]: 149 nM (active)
GI50 [34]: 4200 nM (inactive)
GI50 [35]: 4200 nM (inactive)
GI50 [36]: 3050 nM (inactive)
GI50 [37]: 10400 nM (inactive)
GI50 [38]: 1830 nM (inactive)
GI50 [39]: 3270 nM (inactive)
GI50 [40]: 2740 nM (inactive)
GI50 [41]: 701 nM (active)
GI50 [42]: 4090 nM (inactive)
GI50 [43]: 11000 nM (inactive)
GI50 [44]: 1740 nM (inactive)
GI50 [45]: 1850 nM (inactive)
GI50 [46]: 6810 nM (inactive)
GI50 [47]: 2800 nM (inactive)
GI50 [48]: 13000 nM (inactive)
GI50 [49]: 7480 nM (inactive)
GI50 [50]: 15700 nM (inactive)
GI50 [51]: 11000 nM (inactive)
GI50 [52]: 843 nM (active)
GI50 [53]: 1450 nM (inactive)
GI50 [54]: 3220 nM (inactive)
GI50 [55]: 2690 nM (inactive)
GI50 [56]: 1780 nM (inactive)
GI50 [57]: 2400 nM (inactive)
GI50 [58]: 1820 nM (inactive)
GI50 [59]: 1890 nM (inactive)
